From PMC6288471 (Frontiers in Veterinary Science, 2018)

Experiments:
[1] = Protein binding of apixaban in spiked platelet-poor plasma (ultrafiltration, UPLC-MS); assay type: in vitro ADME, horse
Method: The supernatant was filtered with a […] syringe filter (Corning Inc.). […] Half of the sample was subsequently frozen at −20°C and the rest was ultracentrifuged at 16,000 × g for 30 min in a molecular exclusion device (Amicon Ultra 30k filter, Millipore), to remove the major plasma proteins. The ultrafiltrate was then frozen at −20°C. Both the spiked plasma and the ultrafiltrate of the spiked plasma were analyzed for apixaban using UPLC-MS.

[2] = molecular target: T1, bovine activated Factor X (Bos taurus, UniProt P00743); assay: Apixaban-calibrated chromogenic anti-Xa activity assay in platelet-poor plasma of dosed horses; assay type: in vivo, horse; conditions: for Anti-Xa activity (ng/mL), median (range): PO 0.2 mg/kg
T1 construct: purchased Diagnostica Stago STA®-Liquid anti-Xa
Method: The PPP was harvested from the supernatant of PRP after high-speed centrifugation (13,000 × g, Accuspin Micro, Thermo Scientific, Rockford, IL, USA) for 5 min. The PPP was frozen at −20°C and assays were performed in batches. The PPP was thawed at 37°C in a water bath before analysis with an automated coagulation analyzer (STA® Compact, Diagnostica Stago, Parsipanny, NJ, USA). The assay is configured with a bovine activated Factor X reagent added in excess to the test plasma and a chromogenic substrate of Factor Xa (STA®-Liquid anti-Xa, Diagnostica Stago). In this assay, residual, uninhibited Factor Xa cleaves the chromogenic substrate such that the inverse of the color change in the reaction mixture is proportional to the drug concentration in the test plasma.

[3] = Clinical observation for adverse effects / safety testing of a trial IV dose; assay type: in vivo, horses
Method: The paste was transferred to a 60 mL syringe (Becton-Dickinson) and stored at room temperature until administration. For IV formulation, crushed tablets were dissolved in a vehicle consisting of 10% v/v N,N-dimethylacetamide (EMD Millipore, Billerica, MA, USA), 17% v/v propylene glycol (Sigma-Aldrich), 17% v/v dimethyl sulfoxide (DMSO, Sigma-Aldrich), and 56% v/v deionized water (MilliQ® water, Q-Pod®, EMD Millipore). After vigorous vortexing, the formulation was sterile filtered through a […] cellulose acetate filter (Corning Inc., Corning, NY, USA) then drawn into 60 mL syringes. The IV formulation was prepared 24 h before administration and stored at room temperature. […] To ensure that the vehicle was not toxic, safety testing was performed on a trial IV dose given to a different horse.
Some individual horses had test results that were slightly above or below the established reference intervals, but this likely represented normal biological variability. […] Again, we attributed this to normal biological variation.

[4] = rats; cited from earlier work
[5] = other animals; cited from earlier work
plasma protein = conditions: rabbits; cited from earlier work

T1 sequence (P00743 234-492 limits assumed): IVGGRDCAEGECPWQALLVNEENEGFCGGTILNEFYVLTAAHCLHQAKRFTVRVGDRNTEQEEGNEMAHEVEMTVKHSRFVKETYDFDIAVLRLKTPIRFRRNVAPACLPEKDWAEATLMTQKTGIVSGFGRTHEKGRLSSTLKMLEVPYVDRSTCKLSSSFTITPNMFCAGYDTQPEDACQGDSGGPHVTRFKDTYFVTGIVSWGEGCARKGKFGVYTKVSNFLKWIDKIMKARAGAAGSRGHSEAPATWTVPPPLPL
T1 sequence (P00743 41-180 limits assumed): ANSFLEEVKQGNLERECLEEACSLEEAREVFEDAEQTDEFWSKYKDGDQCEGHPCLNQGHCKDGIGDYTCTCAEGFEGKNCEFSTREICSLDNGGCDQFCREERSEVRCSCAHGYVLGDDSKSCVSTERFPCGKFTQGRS

Compound `COc1ccc(-n2nc(C(N)=O)c3c2C(=O)N(c2ccc(N4CCCCC4=O)cc2)CC3)cc1` [apixaban] has a fraction unbound at 30 min, 200 nM ([1]; horse PPP spiked at 92 ng/mL (200 nM), read-out: mean percentage of protein binding (converted)) of 0.076, a fraction unbound at 30 min, 1000 nM ([1]; horse PPP spiked at 460 ng/mL (1,000 nM), read-out: mean percentage of protein binding (converted)) of 0.015 and a fraction unbound at 30 min ([1]; horse plasma, range as given in abstract) of 0.01 to 0.08. The “Anti-Xa activity (ng/mL), median (range)” value ([2]; 15 min) was 7.4 (5.9–9.4) ng/mL, the “Anti-Xa activity (ng/mL), median (range)” value ([2]; 30 min) was 7.5 (6.8–12.5) ng/mL and the “Anti-Xa activity (ng/mL), median (range)” value ([2]; 45 min) was 9.9 (8.4–10.1) ng/mL. For the same compound, the “Anti-Xa activity (ng/mL), median (range)” value ([2]; 1 h) was 10.9 (8.4–17) ng/mL, the “Anti-Xa activity (ng/mL), median (range)” value ([2]; 2 h) was 9.7 (7.4–14.8) ng/mL and the “Anti-Xa activity (ng/mL), median (range)” value ([2]; 4 h) was 9.3 (3.8–12) ng/mL. The “Anti-Xa activity (ng/mL), median (range)” value ([2]; 6 h) was 10.7 (6.3–13.8) ng/mL, the “Anti-Xa activity (ng/mL), median (range)” value ([2]; 24 h) was 7.6 (0–8.3) ng/mL and the “change in anti-Xa activity” value ([2]; oral dosing of apixaban) was “No change”. The “clinically apparent adverse effects” value ([3]; horses, oral and IV formulations) was “no clinically apparent adverse effects”, the “changes in clinical pathologic test results” value ([3]; trial IV dose in a different horse, 24 h after IV bolus) was “no changes” and the adverse clinical reactions ([3]; trial IV dose of dissolved apixaban in a different horse) was “no adverse clinical reactions”. For the same compound, the “availability after oral administration” value [4] was 50%, the “fecal route of elimination, share of the dose” value [5] was “more than 54%” and the apixaban protein bound (plasma protein) was ~ 60%.
